For orientation: IC50 means the concentration that inhibits the measured activity by half.

≈ marks a conversion by molar mass, not a printed value. Like-named read-outs stand apart in the source and are kept apart here. A value given as a limit tells only on which side of the number the result lay.

For series [1], the system named is Heterosigma akashiwo. Put plainly: Antimicroalgal activity, inhibition of marine phytoplankton. The note with it: for IC50: Heterosigma akashiwo, 24 h, read-out: IC50 Heterosigma akashiwo.
Series [2] has as its system Amphidinium carterae. Described as above. Conditions: for IC50: Amphidinium carterae, 24 h, read-out: IC50 Amphidinium carterae.
The test system of series [3] is Heterocapsa circularisquama. Described as above. The note with it: for IC50: Heterocapsa circularisquama, 24 h, read-out: IC50 Heterocapsa circularisquama.
The subject of series [4] is Prorocentrum donghaiense. The series is described as above. Conditions: for IC50: Prorocentrum donghaiense, 24 h, read-out: IC50 Prorocentrum donghaiense.
The subject of series [5] is Artemia salina. Description: Brine shrimp lethal activity. The class given is in vivo. Conditions: 24 h. The procedure: The inhibition of the brine shrimp Artermia salina was assayed according to the procedures described in our previous report. In brief, brine shrimp eggs were left to hatch in sea water for 48 h at 25 °C under natural light. […] The lethality was observed after 24 h of cultivation.

Series [6] relates to Gaeumannomyces graminis. Description: Antifungal activity, microdilution method in 96-well plate. The class given is cell-based. Conditions: 48 h, read-out: MIC Gaeumannomyces graminis.
Series [7] deals with Fusarium graminearum. Description: microbe, parasite or virus in culture. The class given is cell-based. Conditions: 48 h, read-out: MIC Fusarium graminearum.
Series [8] concerns Glomerella cingulata. Description: Antifungal activity, microdilution method in 96-well plate. Conditions: Colletotrichum gloeosporioides; microdilution in PDB, 28 °C, 48 h. The class given is cell-based. On the technique in general: Broth dilution looks for growth in wells or tubes with falling amounts of substance.
Series [9] has as its system three phytopathogenic fungi (Fusarium graminearum, Gaeumannomyces graminis, and Glomerella cingulata). Description: organism not typed. The note with it: for MIC: read-out: MIC against the three phytopathogenic fungi tested, summary over three fungi; for antifungal activity (in words): summary over three fungi. The class given is cell-based.

With `[K+].[K+].[O]=[Cr](=[O])([O-])[O][Cr](=[O])(=[O])[O-]` [Compound K2Cr2O7, K2Cr2O7, reference compound], the “IC50 Heterosigma akashiwo” value in series [1] (live cells counted after 24 h) is 0.8 µg/mL. Further, in series [2] (live cells counted after 24 h), the “IC50 Amphidinium carterae” value came to 1.2 µg/mL. Besides, the “IC50 Heterocapsa circularisquama” value in [3] (live cells counted after 24 h) turned out to be 1.0 µg/mL. For the same molecule, the “IC50 Prorocentrum donghaiense” value in series [4] (live cells counted after 24 h) came to 1.4 µg/mL. Further, the “Lethal Rate (at 100 μg/mL) Artemia salina” value in series [5] came to 100%.
For the molecule `C[C@@H]1[C@H](O)[C@@H](C)/C=C/C=C/C=C/C=C/C=C/C=C/C=C/[C@H](O[C@@H]2O[C@H](C)[C@@H](O)[C@H](N)[C@@H]2O)C[C@@H]2O[C@](O)(C[C@@H](O)C[C@@H](O)[C@H](O)CC[C@@H](O)C[C@@H](O)CC(=O)O[C@H]1C)C[C@H](O)[C@H]2C(=O)O` [amphotericin B, reference compound], the MIC in series [6] (microdilution in PDB, 28 °C) was 2 µg/mL (≈ 2.16 µM); in series [7], 2 µg/mL (≈ 2.16 µM); in series [8], 1 µg/mL (≈ 1.08 µM).
Take `C/C=C/CCC(O)C(O)C/C=C/CC(C)O` (stereo not drawn) [Compound 5, (4E,11E)-trideca-4,11-dien-2,7,8-triol]: the MIC in series [6] (microdilution in PDB, 28 °C) was more than 256 µg/mL; in [7], more than 256 µg/mL; in series [8] it was more than 256 µg/mL. In addition, the 50% inhibitory concentration (IC50) in series [1] was more than 100 µg/mL; in [2], 50 µg/mL (≈ 219 µM); in [3], 68 µg/mL (≈ 298 µM); in series [4], more than 100 µg/mL.
In the case of `C=CCC(O)/C=C/C(O)C(O)CC/C=C/C` (stereo not drawn) [Compound 3, (5E,11E)-trideca-1,5,11-trien-4,7,8-triol], the MIC in [6] (microdilution in PDB, 28 °C) is more than 256 µg/mL; in series [7], more than 256 µg/mL; in series [8], more than 256 µg/mL. The half-maximal inhibitory concentration (IC50) in series [1] is more than 100 µg/mL; in series [2], 66 µg/mL (≈ 292 µM); in [3], 78 µg/mL (≈ 345 µM); in series [4], more than 100 µg/mL.
For `C/C=C/CC[C@@H](O)[C@@H](O)C/C=C/[C@@H](O)[C@H](C)O` [Compound 7, triharzianin B], the MIC in series [6] (microdilution in PDB, 28 °C) was 256 µg/mL (≈ 1050 µM); in [7] it was more than 256 µg/mL; in [9], not below 64 µg/mL; in series [8], 128 µg/mL (≈ 524 µM). In addition, the half-inhibitory concentration (IC50) in series [1] is 49 µg/mL (≈ 201 µM); in [2] it was more than 100 µg/mL; in series [3], more than 100 µg/mL; in series [4] it was 30 µg/mL (≈ 123 µM). In series [9], the “antifungal activity (in words)” value is listed as “weak antifungal activity”.
Consider `CC=CCCC1(O)OC(C(O)C=CC)CC1O` (stereo not drawn) [Compound 1, Trichoderol B], for which the MIC was 256 µg/mL (≈ 1060 µM) in series [6], 256 µg/mL (≈ 1060 µM) in series [7], 64 to 256 µg/mL (≈ 264 to 1060 µM) in series [9] and 64 µg/mL (≈ 264 µM) in series [8]. Besides, the half-maximal inhibitory concentration (IC50) stood at 28 µg/mL (≈ 116 µM) in series [1], 15 µg/mL (≈ 61.9 µM) in series [2], 24 µg/mL (≈ 99 µM) in series [3] and 22 µg/mL (≈ 90.8 µM) in [4]. In addition, the “antifungal activity (in words)” value in series [9] is on record as “weak antifungal activity”.
Take `C/C=C/CCC(O)C(O)C/C=C/C(O)C(C)O` (stereo not drawn) [Compound 4, (4E,11E)-trideca-4,11-diene-2,3,7,8-tetraol]: the MIC in series [6] (microdilution in PDB, 28 °C) was 256 µg/mL (≈ 1050 µM); in series [7], more than 256 µg/mL; in [9], not below 64 µg/mL; in series [8], 128 µg/mL (≈ 524 µM). Moreover, the IC50 in series [1] was 53 µg/mL (≈ 217 µM); in [2], more than 100 µg/mL; in series [3], more than 100 µg/mL; in [4], 42 µg/mL (≈ 172 µM). Besides, the “antifungal activity (in words)” value in series [9] was “weak antifungal activity”.
For the molecule `C/C=C/CCC(O)C(O)C/C=C/CO` (stereo not drawn) [Compound 6, (2E,9E)-undeca-2,9-dien-1,5,6-triol], the MIC was more than 256 µg/mL in series [6] (microdilution in PDB, 28 °C); more than 256 µg/mL in series [7]; more than 256 µg/mL in series [8]. Besides, the half-maximal inhibitory concentration (IC50) is 82 µg/mL (≈ 409 µM) in [1], 44 µg/mL (≈ 220 µM) in series [2], more than 100 µg/mL in series [3] and more than 100 µg/mL in [4].
On to `C/C=C/CCC(O)C(O)/C=C/C=C/C(O)CO` (stereo not drawn) [Compound 2, (3E,5E,11E)-trideca-3,5,11-trien-1,2,7,8-tetraol], for which the MIC is more than 256 µg/mL in series [6] (microdilution in PDB, 28 °C); more than 256 µg/mL in series [7]; more than 256 µg/mL in series [8]. Moreover, the half-maximal inhibitory concentration (IC50) in series [1] was 43 µg/mL (≈ 177 µM); in series [2] it was 61 µg/mL (≈ 252 µM); in series [3] it was more than 100 µg/mL; in [4], 37 µg/mL (≈ 153 µM).

The values above are taken from paper PMC10456296, “Trichoderols B-G, Six New Lipids from the Marine Algicolous Fungus Trichoderma sp. Z43” (Marine Drugs, 2023).
